# Measurements: ChEMBL document CHEMBL1208715, “Cyclic amide bioisosterism: strategic application to the design and synthesis of HCV NS5B polymerase inhibitors” (Bioorg Med Chem Lett, 2010)
# Assays:
# [1] = target: RNA-directed RNA polymerase (Hepacivirus hominis, UniProt O39930, M414T); assay: Inhibition of HCV NS5B polymerase M414T mutant
# [2] = target: RNA-directed RNA polymerase (Hepacivirus hominis, UniProt O39930, L419M); assay: Inhibition of HCV NS5B polymerase L419M mutant
# [3] = Inhibition of wild type HCV GT1b NS5B polymerase; design: species or system Hepacivirus hominis
# [4] = Inhibition of HCV GT1b NS5B polymerase; design: species or system Hepacivirus hominis
# Hepatitis C virus = assay: Antiviral activity against […] Con1 GT1b infected in HuH7 cells by replicon assay; type: functional, Hepacivirus hominis; conditions: Huh-7
# [5] = Cytotoxicity against human HuH7 cells by WST-1 assay; type: cell-based, Huh-7
# Sequence of RNA-directed RNA polymerase (Hepacivirus hominis, UniProt O39930, L419M) (O39930 entry or part of it L419M): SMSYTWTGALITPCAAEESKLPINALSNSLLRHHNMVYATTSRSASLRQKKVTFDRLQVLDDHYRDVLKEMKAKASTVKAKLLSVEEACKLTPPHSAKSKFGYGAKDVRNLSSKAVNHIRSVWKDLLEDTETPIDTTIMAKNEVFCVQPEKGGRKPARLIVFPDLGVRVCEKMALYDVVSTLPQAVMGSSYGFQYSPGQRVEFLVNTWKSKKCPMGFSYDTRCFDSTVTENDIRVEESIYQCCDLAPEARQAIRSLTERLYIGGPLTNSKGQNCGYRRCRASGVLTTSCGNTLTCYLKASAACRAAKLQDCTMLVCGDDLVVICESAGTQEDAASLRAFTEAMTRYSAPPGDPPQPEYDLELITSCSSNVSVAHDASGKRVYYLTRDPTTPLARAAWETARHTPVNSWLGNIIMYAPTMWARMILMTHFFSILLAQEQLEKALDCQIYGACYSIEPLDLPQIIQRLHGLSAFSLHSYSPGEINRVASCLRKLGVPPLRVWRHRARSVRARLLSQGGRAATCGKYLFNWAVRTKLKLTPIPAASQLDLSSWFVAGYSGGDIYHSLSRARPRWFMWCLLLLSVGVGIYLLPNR
# Sequence of RNA-directed RNA polymerase (Hepacivirus hominis, UniProt O39930, M414T) (O39930 entry or part of it M414T): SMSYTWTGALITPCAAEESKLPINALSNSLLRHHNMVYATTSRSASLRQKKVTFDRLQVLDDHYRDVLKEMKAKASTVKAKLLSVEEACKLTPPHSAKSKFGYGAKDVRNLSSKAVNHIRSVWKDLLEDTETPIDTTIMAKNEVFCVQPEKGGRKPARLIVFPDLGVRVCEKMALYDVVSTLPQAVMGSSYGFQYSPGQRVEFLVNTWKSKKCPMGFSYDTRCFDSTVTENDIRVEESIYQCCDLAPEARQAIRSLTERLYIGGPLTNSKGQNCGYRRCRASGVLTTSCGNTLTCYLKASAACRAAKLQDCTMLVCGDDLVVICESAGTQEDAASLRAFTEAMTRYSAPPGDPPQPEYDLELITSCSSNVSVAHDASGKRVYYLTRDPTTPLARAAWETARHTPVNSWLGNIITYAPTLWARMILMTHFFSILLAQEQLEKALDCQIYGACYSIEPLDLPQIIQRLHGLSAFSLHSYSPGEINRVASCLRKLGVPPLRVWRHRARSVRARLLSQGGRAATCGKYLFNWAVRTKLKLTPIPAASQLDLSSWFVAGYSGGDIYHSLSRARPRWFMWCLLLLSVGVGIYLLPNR
SMILES,IC50 [4] [µM],further results
C[C@H]1CC[C@H](n2nncc2-c2cc(-c3ccccc3)sc2C(=O)O)CC1,0.1,Kd [1]: 0.597 µM; Kd [2]: 4.48 µM; Kd [3]: 0.86 µM; EC50 (Hepatitis C virus): 15 µM; CC50 [5]: > 50 µM
CC(C)N(c1cc(-c2ccccc2)sc1C(=O)O)C(=O)[C@H]1CC[C@H](C)CC1,0.028,Kd [1]: 0.033 µM; Kd [2]: 0.427 µM; Kd [3]: 0.041 µM; EC50 (Hepatitis C virus): 0.23 µM; CC50 [5]: 48 µM
Cc1ccc(-n2nncc2-c2cc(-c3ccccc3)sc2C(=O)O)cc1,0.11,Kd [1]: 3.99 µM; Kd [2]: 23.1 µM; Kd [3]: 4.32 µM; EC50 (Hepatitis C virus): > 30 µM; CC50 [5]: > 30 µM
Cc1ccc(-c2nocc2-c2cc(-c3ccccc3)sc2C(=O)O)cc1,2.5,
O=C(O)c1sc(-c2ccccc2)cc1-c1cc(=O)[nH]nc1-c1ccccc1,92,
C[C@H]1CC[C@H](c2nocc2-c2cc(-c3ccccc3)sc2C(=O)O)CC1,0.11,
Cc1ccc(-c2cc(=O)[nH]n2-c2cc(-c3ccccc3)sc2C(=O)O)cc1,0.62,
CC1CCC(=Cc2ncccc2-c2cc(-c3ccccc3)sc2C(=O)O)CC1 (stereo unspecified),0.17,
O=C(O)c1sc(-c2ccccc2)cc1-c1conc1C1CCCCC1,0.074,
Cc1ccc(-c2cc(=O)[nH]nc2-c2cc(-c3ccccc3)sc2C(=O)O)cc1,3.3,
O=C(O)c1sc(-c2ccccc2)cc1-c1conc1-c1ccc(F)cc1,5.7,
CCCCOc1ccccc1-c1cc(-c2ccccc2)sc1C(=O)O,16,
C[C@H]1CC[C@H](c2ncccc2-c2cc(-c3ccccc3)sc2C(=O)O)CC1,0.022,
C[C@H]1CC[C@H](c2cc(-c3cc(-c4ccccc4)sc3C(=O)O)on2)CC1,32,
O=C(O)c1sc(-c2ccccc2)cc1-c1conc1-c1ccc(Cl)cc1,2.6,
O=C(O)c1sc(-c2ccccc2)cc1-c1cnnn1-c1ccccc1,17,
O=C(O)c1sc(-c2ccccc2)cc1-c1cnnn1C1CCCCC1,0.34,
O=C(O)c1sc(-c2ccccc2)cc1-c1conc1-c1ccccc1,29,
C[C@H]1CC[C@H](c2ccccc2-c2cc(-c3ccccc3)sc2C(=O)O)CC1,0.042,EC50 (Hepatitis C virus): 12 µM; CC50 [5]: 20 µM
